Test results as given in US20220380331A1, “TREATMENT OF CONDITIONS OF THE NERVOUS SYSTEM” (priority 2019, published 2022).

Legend:
PNN-HEK293 cells = assay: Immunocytochemistry of PNN formation (WFA) with PNNi analogues; type: cell-based, human
Description: To compare the efficacy of PNNi, JD009, and JD013 in reducing PNN formation, immunocytochemistry was conducted using the N-acetylgalactosamine-binding lectin WFA to label PNNs. PNN-HEK293 cells were exposed to 0.5 mM and 1 mM of the compounds for 3 days in vitro. […] Quantification of WFA fluorescence intensity per cell was derived in matched regions of interest (ROI) and normalising overall WFA fluorescence intensity to cell number.

rats, mice and rabbits = settings: very high doses; cited from earlier work

Cc1cc(=O)oc2cc(O)ccc12 [PNNi, 4-methylumbelliferone]
PNN morphology and expression (WFA fluorescence intensity per cell) (PNN-HEK293 cells; 0.5 mM and 1 mM, 3 days in vitro): insufficient to cause substantial changes in PNN morphology and expression | PNN morphology and expression (WFA staining intensity) (PNN-HEK293 cells; 1 mM and 2 mM (FIG. 14 legend)): insufficient to cause substantial changes in PNN morphology and expression | teratogenic effect (rats, mice and rabbits): does not seem to have a teratogenic effect
